Assay results taken from patent US10864198B2, “Methods of preventing cardiovascular events in residual risk dyslipidemic populations” (Kowa Company, Ltd., priority 2016, dated 2020).
Read-outs that look alike come from different tables or passages of the source.

Assays:
[1] = target: T1, PPARδ (Homo sapiens, UniProt Q03181); conditions: PPAR transcriptional activity; Fruchart 2013 Table 1; cited from earlier work
T1 sequence (Q03181 1-441): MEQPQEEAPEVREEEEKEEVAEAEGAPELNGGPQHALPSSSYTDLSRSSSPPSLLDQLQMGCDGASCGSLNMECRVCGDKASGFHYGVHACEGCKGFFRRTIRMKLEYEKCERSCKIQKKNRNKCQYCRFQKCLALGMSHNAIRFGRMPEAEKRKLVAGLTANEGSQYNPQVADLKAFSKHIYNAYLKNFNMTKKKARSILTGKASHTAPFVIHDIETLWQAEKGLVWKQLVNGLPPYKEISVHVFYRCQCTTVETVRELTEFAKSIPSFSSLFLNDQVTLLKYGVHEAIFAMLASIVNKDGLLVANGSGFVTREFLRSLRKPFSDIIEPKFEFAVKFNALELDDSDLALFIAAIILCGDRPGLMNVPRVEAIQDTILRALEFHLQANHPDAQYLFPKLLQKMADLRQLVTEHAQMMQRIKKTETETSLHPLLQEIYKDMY

[2] = system: men with dyslipidemia; conditions: Helsinki Heart Study and VA-HIT Study; cited from earlier work
[3] = system: patients with fasting high TG and non-HDL-C treated with pitavastatin; assay: Example 3: double-blind parallel-group study, pemafibrate add-on to pitavastatin, 12 weeks; assay type: in vivo, human; conditions: for Fasting non-HDL-C reduction: with pitavastatin, placebo −5.9%; for Fasting TG reduction (percentage change from baseline): with pitavastatin 2 mg/day, P<0.001 vs placebo (−6.9%)
From the text: The primary endpoint was the percentage change in TG from baseline and incidence of adverse drug reactions (ADRs) and adverse events (AEs).

[4] = target: T2, PPARγ (Homo sapiens, UniProt P37231); conditions: PPAR transcriptional activity; Fruchart 2013 Table 1; cited from earlier work
T2 sequence (P37231 1-505): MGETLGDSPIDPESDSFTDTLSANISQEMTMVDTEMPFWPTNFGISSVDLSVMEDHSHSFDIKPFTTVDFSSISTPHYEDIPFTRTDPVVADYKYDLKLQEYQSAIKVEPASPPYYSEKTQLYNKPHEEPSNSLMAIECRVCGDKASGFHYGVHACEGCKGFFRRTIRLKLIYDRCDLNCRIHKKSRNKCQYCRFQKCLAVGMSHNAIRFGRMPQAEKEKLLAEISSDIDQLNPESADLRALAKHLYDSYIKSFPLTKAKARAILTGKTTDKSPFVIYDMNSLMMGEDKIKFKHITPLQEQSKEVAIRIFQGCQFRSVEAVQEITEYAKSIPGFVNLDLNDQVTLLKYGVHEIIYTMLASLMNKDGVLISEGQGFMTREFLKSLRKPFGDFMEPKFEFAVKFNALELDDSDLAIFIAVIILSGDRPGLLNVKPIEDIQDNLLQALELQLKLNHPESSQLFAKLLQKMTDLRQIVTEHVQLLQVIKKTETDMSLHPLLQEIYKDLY

[5] = system: patients with type 2 diabetes mellitus with residual dyslipidemia on statin; assay: Example 2: post-hoc analysis of type 2 diabetes patients of the Example 1 study; assay type: in vivo, human; conditions: for increase in HDL-C / BQ LDL-C increase: significant
From the text: Overall, 161 type 2 diabetes mellitus patients were randomized and 154 patients completed treatment. […] Tables 1-4 also report the results of the analyses, and compare the results to the results obtained for the general residual dyslipidemia population studied in Example 1.

[6] = system: dyslipidemia patients on concurrent statin therapy; assay type: in vivo, human; conditions: for LDL-C levels increase vs. placebo: significant
From the text: The results of the study are depicted in FIGS. 1A-1D.

[7] = system: patients on statins with residual cardiovascular risk; conditions: two clinical trials; cited from earlier work

## CC(C)OC(=O)C(C)(C)Oc1ccc(C(=O)c2ccc(Cl)cc2)cc1 [Fenofibrate, reference compound]
[1]
  PPARδ EC50: not activated

## Cc1ccc(C)c(OCCCC(C)(C)C(=O)O)c1 [gemfibrozil]
[2]
  primary endpoint for reducing cardiovascular risk: met their primary endpoint

## CC[C@@H](Oc1cccc(CN(CCCOc2ccc(OC)cc2)c2nc3ccccc3o2)c1)C(=O)O [pemafibrate, Pemafibrate]
[3]; 0.4 mg/day, P=0.003
  fasting plasma glucose compared to placebo: significant reductions
[3]; 0.4 mg/day, P=0.019
  HOMA-IR compared to placebo: significant reductions
[3]; HPLC analysis, P<0.05
  very small LDL-C compared to placebo: significant reduction
[3]; add-on to pitavastatin, 12 weeks
  effect on total LDL-C: neutral effect
[3]; all pemafibrate groups, P<0.01
  Apo CIII compared to placebo: reductions
  HDL-C compared to placebo: Significant increase
  VLDL-C compared to placebo: reductions
  remnant lipoprotein cholesterol compared to placebo: reductions
[3]; pemafibrate 0.1 mg, 12 weeks
  Fasting non-HDL-C reduction: −11.3%
[3]; pemafibrate 0.1 mg/day twice-daily, 12 weeks
  Fasting TG reduction (percentage change from baseline): −46.1%
[3]; pemafibrate 0.2 mg, 12 weeks
  Fasting non-HDL-C reduction: −14.1%
[3]; pemafibrate 0.2 mg/day twice-daily, 12 weeks
  Fasting TG reduction (percentage change from baseline): −53.4%
[3]; pemafibrate 0.4 mg, 12 weeks
  Fasting non-HDL-C reduction: −13.3%
[3]; pemafibrate 0.4 mg/day twice-daily, 12 weeks
  Fasting TG reduction (percentage change from baseline): −52.0%
[4]
  EC50: 2.3 µM
[1]
  EC50: 1 µM
[5]; 0.05 mg BID
  increase in HDL-C: 11.39%
[5]; 0.1 mg BID
  increase in HDL-C: 11.94%
[5]; 0.1 mg QD
  BQ LDL-C increase: 6.7%
[5]; 0.2 mg BID
  BQ LDL-C increase: 1.8%
[5]; 0.2 mg QD
  increase in HDL-C: 9.48%
[5]; across all doses
  TG levels: significantly reduced
[5]; all doses
  Apo B48 levels: significantly reduced
  Apo CIII levels: significantly reduced
  remnant-C levels: significantly reduced
[5]; any dose
  change in total Apo B: no significant change
[6]; 0.1 mg BID, 12 weeks
  LDL-C levels increase vs. placebo: 22.46%
[6]; 0.2 mg BID, 12 weeks
  Non-HDL-C levels: significantly reduced
  LDL-C levels increase vs. placebo: 24.25%
[6]; 0.2 mg QD, 12 weeks
  Non-HDL-C levels: significantly reduced
[6]; 0.4 mg QD, 12 weeks
  LDL-C levels increase vs. placebo: 18.74%
[6]; all treatment groups after 12 weeks
  TG levels: significantly reduced
[6]; any dose, 12 weeks
  change in total Apo B: no significant change
[6]; both, human, in vivo, 12 weeks
  Adverse events, patients: 46.4%

## O=C(O)c1cccnc1 [niacin]
[7]
  prevention of cardiovascular events: unable to prevent cardiovascular events
